Experimental data as given in US4849441A, “Isoindolin-1-one derivative and antiarrhythmic agent” (Kyowa Hakko Kogyo Co., Ltd., priority 1986, dated 1989).

test system: coronary artery ligation-induced arrhythmia in dog; assay: Dog coronary artery ligation-induced arrhythmia test; type: in vivo, dogs; details: Canis lupus familiaris, intravenous, 16 h after ligation, effective if 50% or more of total pulses restored to sinus rhythm, dose effective in 50% or more cases, read-out: Antiarrhythmic Activity B: coronary artery ligation induced arrhythmia in dog (MED)
Source text: The antiarrhythmic activity was examined by arrhythmia test induced with chloroform in mice and by arrhythmia test induced by ligation of dog coronary artery.
(B) Dog coronary artery ligation-induced arrhythmia test:
Using dogs weighing 7 to 12 kg, coronary artery ligation-induced arryhthmia occurred in accordance with the Harris method [Circulation, 1, 1318 (1950)]. Namely, the left fifth costa was subjected to thoraco-laparotomy.After the pericardium was incised, the left fore descending branch of the coronary artery was exfoliated around the first side branch and ligated. Sixteen hours after, a test compound was intravenously administered to dogs with multiple ventricular arrhythmic pulses being 90% or more than the total pulses. Then, electrocardiogram was recorded without anesthesia under free movement, and a case where 50% or more of the total pulses was restored to sinus rhythm was judged effective.

Structure (SMILES) | minimal effective dose [mg/kg]
CCN(CC)CCN1C(=O)c2ccccc2C1c1ccccc1N (stereo not drawn) [Compound 1, 3-(2-Aminophenyl)-2-(2-diethylaminoethyl)isoindolin-1-one] | 1.25
CN(C)CCCN1C(=O)c2ccccc2C1c1ccccc1N (stereo not drawn) [Compound 2] | 5
CCN(CC)CCCN1C(=O)c2ccccc2C1c1ccccc1N (stereo not drawn) [Compound 3, 3-(2-Aminophenyl)-2-(3-diethylaminopropyl)isoindolin-1-one] | 2.5
CCN(CC)CCCCN1C(=O)c2ccccc2C1c1ccccc1N (stereo not drawn) [Compound 4, 3-(2-Aminophenyl)-2-(4-diethylaminobutyl)isoindolin-1-one] | 1.25
CCCCN(CCCC)CCCN1C(=O)c2ccccc2C1c1ccccc1N (stereo not drawn) [Compound 5, 2-(3-dibutylaminopropyl)-3-(2-aminophenyl)isoindolin-1-one] | 1.25
CC(C)NCCN1C(=O)c2ccccc2C1c1ccccc1N (stereo not drawn) [Compound 6, 3-(2-Aminophenyl)-2-(2-isopropylaminoethyl)isoindolin-1-one] | 2.5
CCN(CC)CCN1C(=O)c2ccccc2C1c1ccccc1NC (stereo not drawn) [Compound 7, 2-(2-Diethylaminoethyl)-3-(2-methylaminophenyl)isoindolin-1-one] | > 2.5
CCN(CC)CCN1C(=O)c2ccccc2C1c1ccccc1N(C)C (stereo not drawn) [Compound 8, 2-(2-Diethylaminoethyl)-3-(2-dimethylaminophenyl)isoindolin-1-one] | 2.5
CCNc1ccccc1C1c2ccccc2C(=O)N1CCN(CC)CC (stereo not drawn) [Compound 9, 2-(2-Diethylaminoethyl)-3-(2-ethylaminophenyl)isoindolin-1-one] | > 5
CCN(CC)CCN1C(=O)c2ccccc2C1c1cc(Cl)ccc1N (stereo not drawn) [Compound 11, 3-(2-Amino-5-chlorophenyl)-2-(2-diethylaminoethyl)-isoindolin-1-one] | 5
CCN(CC)CCN1C(=O)c2ccccc2C1c1ccc(N(C)C)cc1 (stereo not drawn) [Compound 18, 2-(2-Diethylaminoethyl)-3-(4-dimethylaminophenyl)-isoindolin-1-one] | 2.5
CCN(CC)CCN1C(=O)c2ccccc2C1c1cc(C#N)ccc1N (stereo not drawn) [Compound 31, 3-(2-Amino-5-cyanophenyl)-2-(2-diethylaminoethyl)-isoindolin-1-one] | 2.5
CCNCCN1C(=O)c2ccccc2C1c1cc(C#N)ccc1N (stereo not drawn) [Compound 38, 3-(2-Amino-5-cyanophenyl)-2-(2-ethylaminoethyl)-isoindolin-1-one] | 5

test system: chloroform-induced arrhythmia in mice; assay: Mice chloroform-induced arrhythmia test; type: in vivo, mice of dd strain; details: Mus musculus, po, oral administration, effective if < 720 pulses/min, Probit method, read-out: Antiarrhythmic Activity A: chloroform induced arrhythmia in mice (ED50)
Method: The antiarrhythmic activity was examined by arrhythmia test induced with chloroform in mice and by arrhythmia test induced by ligation of dog coronary artery. (A) Mice chloroform-induced arrhythmia test: Using mice of dd strain, weighing 18 to 22 g and fasting and abstaining from water for 4 to 5 hours, an antiarrhythmic effect was evaluated in accordance with the method of Block [Life Science, 28, 2623 (1981)]. That is, after orally administrating each compound, the mice were put in a chloroform atmosphere and taken out after respiratory standstill. Electrocardiogram was measured by the standard limb induction method; in the case when frequent pulse exceeding 720 pulses/min. is continued for 30 seconds or longer, it was judged ineffective and in the case of a heart beat number being less than 720 pulses/min., it was judged effective. ED50 was determined by the Probit method.

Structure (SMILES) | ED50 [mg/kg]
CCN(CC)CCN1C(=O)c2ccccc2C1c1ccccc1N (stereo not drawn) [Compound 1, 3-(2-Aminophenyl)-2-(2-diethylaminoethyl)isoindolin-1-one] | 33
CN(C)CCCN1C(=O)c2ccccc2C1c1ccccc1N (stereo not drawn) [Compound 2] | > 100
CCN(CC)CCCN1C(=O)c2ccccc2C1c1ccccc1N (stereo not drawn) [Compound 3, 3-(2-Aminophenyl)-2-(3-diethylaminopropyl)isoindolin-1-one] | < 100
CCN(CC)CCCCN1C(=O)c2ccccc2C1c1ccccc1N (stereo not drawn) [Compound 4, 3-(2-Aminophenyl)-2-(4-diethylaminobutyl)isoindolin-1-one] | 47
CCCCN(CCCC)CCCN1C(=O)c2ccccc2C1c1ccccc1N (stereo not drawn) [Compound 5, 2-(3-dibutylaminopropyl)-3-(2-aminophenyl)isoindolin-1-one] | 35
CC(C)NCCN1C(=O)c2ccccc2C1c1ccccc1N (stereo not drawn) [Compound 6, 3-(2-Aminophenyl)-2-(2-isopropylaminoethyl)isoindolin-1-one] | 36
CCN(CC)CCN1C(=O)c2ccccc2C1c1ccccc1NC (stereo not drawn) [Compound 7, 2-(2-Diethylaminoethyl)-3-(2-methylaminophenyl)isoindolin-1-one] | 14
CCN(CC)CCN1C(=O)c2ccccc2C1c1ccccc1N(C)C (stereo not drawn) [Compound 8, 2-(2-Diethylaminoethyl)-3-(2-dimethylaminophenyl)isoindolin-1-one] | 36
CCNc1ccccc1C1c2ccccc2C(=O)N1CCN(CC)CC (stereo not drawn) [Compound 9, 2-(2-Diethylaminoethyl)-3-(2-ethylaminophenyl)isoindolin-1-one] | 63
CCN(CC)CCN1C(=O)c2ccccc2C1c1cc(Cl)ccc1N (stereo not drawn) [Compound 11, 3-(2-Amino-5-chlorophenyl)-2-(2-diethylaminoethyl)-isoindolin-1-one] | > 100
CCN(CC)CCN1C(=O)c2ccccc2C1c1c(C)ccc(C)c1N (stereo not drawn) [Compound 17, 3-(2-Amino-3,6-dimethylphenyl)-2-(2-diethylaminoethyl)-isoindolin-1-one] | < 25
CCN(CC)CCN1C(=O)c2ccccc2C1c1ccc(N(C)C)cc1 (stereo not drawn) [Compound 18, 2-(2-Diethylaminoethyl)-3-(4-dimethylaminophenyl)-isoindolin-1-one] | 23
CCN(CC)CCN1C(=O)c2ccccc2C1c1cc(C)cc(C)c1N (stereo not drawn) [Compound 26, 3-(2-Amino-3,5-dimethylphenyl)-2-(2-diethylaminoethyl)-isoindolin-1-one] | < 25
CCN(CC)CCN1C(=O)c2ccccc2C1c1cc(C#N)ccc1N (stereo not drawn) [Compound 31, 3-(2-Amino-5-cyanophenyl)-2-(2-diethylaminoethyl)-isoindolin-1-one] | 30
CCN(CC)CCN1C(=O)c2ccccc2C1c1cc(F)ccc1N (stereo not drawn) [Compound 32, 3-(2-Amino-5-fluorophenyl)-2-(2-diethylaminoethyl)-isoindolin-1-one] | 25 to 50
CCN(CC)CCN1C(=O)c2ccccc2C1c1cccc(C(C)C)c1N (stereo not drawn) [Compound 33, 3-(2-Amino-3-isopropylphenyl)-2-(2-diethylaminoethyl)-isoindolin-1-one] | 14
CCN1CCCC1CN1C(=O)c2ccccc2C1c1cc(C#N)ccc1N (stereo not drawn) [Compound 35] | 50 to 100
CC(C)NCCN1C(=O)c2ccccc2C1c1cc(C#N)ccc1N (stereo not drawn) [Compound 36, 3-(2-Amino-5-cyanophenyl)-2-(2-isopropylaminoethyl)-isoindolin-1-one] | 50 to 100
CCNCCN1C(=O)c2ccccc2C1c1cc(C#N)ccc1N (stereo not drawn) [Compound 38, 3-(2-Amino-5-cyanophenyl)-2-(2-ethylaminoethyl)-isoindolin-1-one] | 50

same assay, conditions: oral administration, effective if < 720 pulses/min, Probit method

Structure (SMILES) | Antiarrhythmic Activity A: chloroform induced arrhythmia in mice (ED50) [mg/kg]
CCN(CC)CCN1C(=O)c2ccccc2C1c1cc(C#N)ccc1N (stereo not drawn) [Compound 31, 3-(2-Amino-5-cyanophenyl)-2-(2-diethylaminoethyl)-isoindolin-1-one] | 19

test system: dd, male mice; assay: Acute toxicity test (mortality 7 days after administration); type: in vivo; details: mortality at 7 days, minimum lethal dosage

Structure (SMILES) | Acute Toxicity (MLD) p.o. [mg/kg]
CCN(CC)CCN1C(=O)c2ccccc2C1c1ccccc1N (stereo not drawn) [Compound 1, 3-(2-Aminophenyl)-2-(2-diethylaminoethyl)isoindolin-1-one] | > 300
CN(C)CCCN1C(=O)c2ccccc2C1c1ccccc1N (stereo not drawn) [Compound 2] | > 300
CCN(CC)CCCN1C(=O)c2ccccc2C1c1ccccc1N (stereo not drawn) [Compound 3, 3-(2-Aminophenyl)-2-(3-diethylaminopropyl)isoindolin-1-one] | 100
CCN(CC)CCCCN1C(=O)c2ccccc2C1c1ccccc1N (stereo not drawn) [Compound 4, 3-(2-Aminophenyl)-2-(4-diethylaminobutyl)isoindolin-1-one] | 200
CCCCN(CCCC)CCCN1C(=O)c2ccccc2C1c1ccccc1N (stereo not drawn) [Compound 5, 2-(3-dibutylaminopropyl)-3-(2-aminophenyl)isoindolin-1-one] | 100
CC(C)NCCN1C(=O)c2ccccc2C1c1ccccc1N (stereo not drawn) [Compound 6, 3-(2-Aminophenyl)-2-(2-isopropylaminoethyl)isoindolin-1-one] | 300
CCN(CC)CCN1C(=O)c2ccccc2C1c1ccccc1NC (stereo not drawn) [Compound 7, 2-(2-Diethylaminoethyl)-3-(2-methylaminophenyl)isoindolin-1-one] | 50
CCN(CC)CCN1C(=O)c2ccccc2C1c1ccccc1N(C)C (stereo not drawn) [Compound 8, 2-(2-Diethylaminoethyl)-3-(2-dimethylaminophenyl)isoindolin-1-one] | 100
CCNc1ccccc1C1c2ccccc2C(=O)N1CCN(CC)CC (stereo not drawn) [Compound 9, 2-(2-Diethylaminoethyl)-3-(2-ethylaminophenyl)isoindolin-1-one] | 200
CCN(CC)CCN1C(=O)c2ccccc2C1c1cc(Cl)ccc1N (stereo not drawn) [Compound 11, 3-(2-Amino-5-chlorophenyl)-2-(2-diethylaminoethyl)-isoindolin-1-one] | > 300
CCN(CC)CCN1C(=O)c2ccccc2C1c1c(C)ccc(C)c1N (stereo not drawn) [Compound 17, 3-(2-Amino-3,6-dimethylphenyl)-2-(2-diethylaminoethyl)-isoindolin-1-one] | 300
CCN(CC)CCN1C(=O)c2ccccc2C1c1ccc(N(C)C)cc1 (stereo not drawn) [Compound 18, 2-(2-Diethylaminoethyl)-3-(4-dimethylaminophenyl)-isoindolin-1-one] | 100
CCN(CC)CCN1C(=O)c2ccccc2C1c1cc(C)cc(C)c1N (stereo not drawn) [Compound 26, 3-(2-Amino-3,5-dimethylphenyl)-2-(2-diethylaminoethyl)-isoindolin-1-one] | 200
CCN(CC)CCN1C(=O)c2ccccc2C1c1cc(F)ccc1N (stereo not drawn) [Compound 32, 3-(2-Amino-5-fluorophenyl)-2-(2-diethylaminoethyl)-isoindolin-1-one] | 300
CCN(CC)CCN1C(=O)c2ccccc2C1c1cccc(C(C)C)c1N (stereo not drawn) [Compound 33, 3-(2-Amino-3-isopropylphenyl)-2-(2-diethylaminoethyl)-isoindolin-1-one] | 100
CCN1CCCC1CN1C(=O)c2ccccc2C1c1cc(C#N)ccc1N (stereo not drawn) [Compound 35] | > 300
CC(C)NCCN1C(=O)c2ccccc2C1c1cc(C#N)ccc1N (stereo not drawn) [Compound 36, 3-(2-Amino-5-cyanophenyl)-2-(2-isopropylaminoethyl)-isoindolin-1-one] | > 300
CCNCCN1C(=O)c2ccccc2C1c1cc(C#N)ccc1N (stereo not drawn) [Compound 38, 3-(2-Amino-5-cyanophenyl)-2-(2-ethylaminoethyl)-isoindolin-1-one] | > 300

test system: dd, male mice; assay: as above; type: in vivo; details: mortality at 7 days, minimum lethal dosage; remark: another data set of the same source
Method: Groups each consisting of three dd, male mice having body weights of 20±1 g were used, and the compound of the present invention was intraperitoneally administered. Mortality 7 days after the administration was observed and the minimum lethal dosage (MLD) was determined.

Structure (SMILES) | Acute Toxicity (MLD) i.p. [mg/kg]
CCN(CC)CCN1C(=O)c2ccccc2C1c1ccccc1N (stereo not drawn) [Compound 1, 3-(2-Aminophenyl)-2-(2-diethylaminoethyl)isoindolin-1-one] | > 100
CN(C)CCCN1C(=O)c2ccccc2C1c1ccccc1N (stereo not drawn) [Compound 2] | > 100
CCN(CC)CCCN1C(=O)c2ccccc2C1c1ccccc1N (stereo not drawn) [Compound 3, 3-(2-Aminophenyl)-2-(3-diethylaminopropyl)isoindolin-1-one] | > 100
CCN(CC)CCCCN1C(=O)c2ccccc2C1c1ccccc1N (stereo not drawn) [Compound 4, 3-(2-Aminophenyl)-2-(4-diethylaminobutyl)isoindolin-1-one] | > 100
CCCCN(CCCC)CCCN1C(=O)c2ccccc2C1c1ccccc1N (stereo not drawn) [Compound 5, 2-(3-dibutylaminopropyl)-3-(2-aminophenyl)isoindolin-1-one] | 25
CC(C)NCCN1C(=O)c2ccccc2C1c1ccccc1N (stereo not drawn) [Compound 6, 3-(2-Aminophenyl)-2-(2-isopropylaminoethyl)isoindolin-1-one] | > 100
CCN(CC)CCN1C(=O)c2ccccc2C1c1ccccc1NC (stereo not drawn) [Compound 7, 2-(2-Diethylaminoethyl)-3-(2-methylaminophenyl)isoindolin-1-one] | 50
CCN(CC)CCN1C(=O)c2ccccc2C1c1ccccc1N(C)C (stereo not drawn) [Compound 8, 2-(2-Diethylaminoethyl)-3-(2-dimethylaminophenyl)isoindolin-1-one] | 50
CCNc1ccccc1C1c2ccccc2C(=O)N1CCN(CC)CC (stereo not drawn) [Compound 9, 2-(2-Diethylaminoethyl)-3-(2-ethylaminophenyl)isoindolin-1-one] | > 100
CCN(CC)CCN1C(=O)c2ccccc2C1c1cc(Cl)ccc1N (stereo not drawn) [Compound 11, 3-(2-Amino-5-chlorophenyl)-2-(2-diethylaminoethyl)-isoindolin-1-one] | > 100
CCN(CC)CCN1C(=O)c2ccccc2C1c1c(C)ccc(C)c1N (stereo not drawn) [Compound 17, 3-(2-Amino-3,6-dimethylphenyl)-2-(2-diethylaminoethyl)-isoindolin-1-one] | > 100
CCN(CC)CCN1C(=O)c2ccccc2C1c1ccc(N(C)C)cc1 (stereo not drawn) [Compound 18, 2-(2-Diethylaminoethyl)-3-(4-dimethylaminophenyl)-isoindolin-1-one] | 50
CCN(CC)CCN1C(=O)c2ccccc2C1c1cc(C)cc(C)c1N (stereo not drawn) [Compound 26, 3-(2-Amino-3,5-dimethylphenyl)-2-(2-diethylaminoethyl)-isoindolin-1-one] | 100
CCN(CC)CCN1C(=O)c2ccccc2C1c1cc(F)ccc1N (stereo not drawn) [Compound 32, 3-(2-Amino-5-fluorophenyl)-2-(2-diethylaminoethyl)-isoindolin-1-one] | > 100
CCN(CC)CCN1C(=O)c2ccccc2C1c1cccc(C(C)C)c1N (stereo not drawn) [Compound 33, 3-(2-Amino-3-isopropylphenyl)-2-(2-diethylaminoethyl)-isoindolin-1-one] | 50
CCN1CCCC1CN1C(=O)c2ccccc2C1c1cc(C#N)ccc1N (stereo not drawn) [Compound 35] | > 100
CC(C)NCCN1C(=O)c2ccccc2C1c1cc(C#N)ccc1N (stereo not drawn) [Compound 36, 3-(2-Amino-5-cyanophenyl)-2-(2-isopropylaminoethyl)-isoindolin-1-one] | > 100
CCNCCN1C(=O)c2ccccc2C1c1cc(C#N)ccc1N (stereo not drawn) [Compound 38, 3-(2-Amino-5-cyanophenyl)-2-(2-ethylaminoethyl)-isoindolin-1-one] | > 100
